Patent US7169568B2, “Method for screening molecules that exert a neurotrophic effect through activation of neurotrophin receptors” (New York University, priority 2000, dated 2007)
Entries after “also recorded” stand apart in the source; their conditions may differ.

Assays:
MAP kinase = MAP kinase activation in PC12 cells (anti-phospho MAP kinase immunoblot); format: cell-based; conditions: PC12 cells, adenosine 10 μM, within 10 minutes
Description: PC12 cells (615) were treated with adenosine (10 μM) for various times in the presence or absence of […] (100 nM) or LY294002 (10 μM). The cells were subsequently harvested in lysis buffer; lysates and immunoprecipitated samples were subsequently immunoblotted with anti-phospho MAP kinase, anti-phospho Akt, and anti-phosphotyrosine. Reprobing with anti-MAP kinase and anti-pan-Trk antibodies was carried out to ensure equal protein loading. Immunoprotection and Immunoblotting. PC12 cells or PC12-615 cells (Hempstead et al, 1992), were maintained in Dulbecco's Modified Eagle's Medium (DMEM) containing 10% fetal bovine serum (FBS) supplemented with 100 units/ml penicillin, 100 μg/ml streptomycin, and 2 mM glutamine plus 200 μg/ml G418. Cells were placed in low serum medium (1% FBS, 0.5% horse serum) overnight prior to experiments. Cell lysates from PC12, 615 cells, or hippocampal cells were incubated in lysis buffer (1% NP40) for 4 hours to overnight at 4° C. with anti-pan-Trk polyclonal antibody, followed by incubation with protein A-Sepharose beads. Equivalent amounts of protein were analyzed for each condition. […] The immunoreactive protein bands were detected by ECL reagents based upon enhanced chemiluminescence procedure (Amersham Pharmacia).

TrkA = TrkA (Homo sapiens, UniProt P04629); experiment: 125I-NGF equilibrium binding, PC12 cells stably overexpressing TrkA; parameters: expressed in transfected cells; conditions: for Displacement of 125I-NGF binding: PC12 cells overexpressing TrkA, adenosine 1 mM, CGS 21680 1 μM; for Specific Binding of 125I-NGF: 30 minutes at 25° C., control 14316 +/− 350
Chain of TrkA (P04629 33-796): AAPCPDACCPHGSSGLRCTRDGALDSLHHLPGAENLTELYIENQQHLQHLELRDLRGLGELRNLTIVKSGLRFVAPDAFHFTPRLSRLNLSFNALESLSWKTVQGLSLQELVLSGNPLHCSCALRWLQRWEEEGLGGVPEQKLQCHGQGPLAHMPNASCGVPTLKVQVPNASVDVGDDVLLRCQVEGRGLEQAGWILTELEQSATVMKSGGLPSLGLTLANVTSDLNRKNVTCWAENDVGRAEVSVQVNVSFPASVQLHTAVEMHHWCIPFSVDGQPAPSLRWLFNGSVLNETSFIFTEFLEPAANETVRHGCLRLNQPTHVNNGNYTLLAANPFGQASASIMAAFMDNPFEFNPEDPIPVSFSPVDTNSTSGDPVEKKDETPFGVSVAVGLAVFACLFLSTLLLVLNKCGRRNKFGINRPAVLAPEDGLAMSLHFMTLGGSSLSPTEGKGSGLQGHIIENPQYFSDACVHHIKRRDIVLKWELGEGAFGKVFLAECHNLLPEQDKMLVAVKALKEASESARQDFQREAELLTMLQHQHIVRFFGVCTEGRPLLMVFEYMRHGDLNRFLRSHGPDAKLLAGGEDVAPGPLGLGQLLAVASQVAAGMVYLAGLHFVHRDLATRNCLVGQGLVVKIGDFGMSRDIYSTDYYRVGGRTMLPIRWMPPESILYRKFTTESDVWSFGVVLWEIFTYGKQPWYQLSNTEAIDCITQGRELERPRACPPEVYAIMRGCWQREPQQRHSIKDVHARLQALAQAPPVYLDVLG
Description: ^125I-NGF Binding Analysis. For equilibrium binding studies, ^125I-NGF was prepared as described previously (Hempstead et al, 1989). PC12 cells stably overexpressing TrkA (2×10^5 cells) and HEK 293 cells expressing TrkA (2×10^5) were incubated with ^125I-NGF in the absence and presence of adenosine compounds for 30 minutes at 25° C. The cells were then washed twice with PBS, and ^125I-NGF stripped with an acid solution (0.2 M acetic acid, 0.5 M NaCl). Nonspecific binding was assessed by adding unlabeled NGF at a final concentration of 1000 ng/ml and represented less than 20% of total binding. Specific binding was defined as total binding minus nonspecific binding. All conditions were carried out in triplicate and SEM calculated.

TrkA receptors = experiment: TrkA receptor tyrosine phosphorylation in PC12 (615) cells (anti-pan-Trk immunoprecipitation, PY99 anti-phosphotyrosine immunoblot); format: cell-based; conditions: PC12 (615) cells
Description: Stably transfected PC12 cells expressing high levels of TrkA (615) were treated with the indicated compounds for 2 hours. The cells were subsequently harvested in lysis buffer as described in the Materials and Methods of Example 1. Lysates were immunoprecipitated with anti-pan Trk rabbit antiserum. Immunocomplexes were analyzed by immunoblotting with anti-phosphotyrosine antibody (PY99).
In FIG. 2A, different concentrations of adenosine were administered to PC12615 cells for 2 hours or NGF (1 ng/ ml) for 10 min. Cells were also treated with CGS21680 at the indicated dose for 2 hours. In FIG. 2B, PC12 cells (615) were treated with adenosine (10 μM) for various times or with 5 ng/ml NGF for 10 min. Phosphorylated TrkA receptors were detected by immunoblot analysis using PY99 anti-phosphotyrosine antibodies. The amount of Trk receptors in each condition was verified by immunoblotting.
In FIG. 3A, PC12 cells (615) were treated with the A2A agonist CGS 21680 (10 nM) and an A1 agonist CPA (10 nM) for 2 hr. ZM 241385 (10 nM), an A2A antagonist, was incubated with the cells for 15 min prior to treatment with adenosine (10 μM) for 2 hours. In FIG. 3B, PC12 cells (615) were incubated with the indicated concentrations of PP1, a Src family kinase inhibitor (Hanke et al, 1996), for 30 min, and then treated with adenosine (10 μM) for 2 hours. Activation of TrkA was assessed by immunoprecipitation and immunoblot analysis using PY99 anti-phosphotyrosine antibody.
In FIG. 7A, different concentrations of PACAP27 were administered to PC12 (615) cells for 2 hours or NGF (5 ng/ml) for 10 min. […] Phosphorylated TrkA receptors were detected by immunoblot analysis using PY99 anti-phosphotyrosine antibodies. The level of Trk receptors for each condition was verified by immunoblotting with anti-Trk antibodies.
Immunoprotection and Immunoblotting. PC12 cells or PC12-615 cells (Hempstead et al, 1992), were maintained in Dulbecco's Modified Eagle's Medium (DMEM) containing 10% fetal bovine serum (FBS) supplemented with 100 units/ml penicillin, 100 μg/ml streptomycin, and 2 mM glutamine plus 200 μg/ml G418. Cells were placed in low serum medium (1% FBS, 0.5% horse serum) overnight prior to experiments. Cell lysates from PC12, 615 cells, or hippocampal cells were incubated in lysis buffer (1% NP40) for 4 hours to overnight at 4° C. with anti-pan-Trk polyclonal antibody, followed by incubation with protein A-Sepharose beads. Equivalent amounts of protein were analyzed for each condition. The beads' were washed five times with lysis buffer and the immune complexes were boiled in SDS-sample buffer and loaded on sodium dodecyl sulfate-polyacrylamide electrophoresis (SDS-PAGE) gels for immunoblot analysis. The immunoreactive protein bands were detected by ECL reagents based upon enhanced chemiluminescence procedure (Amersham Pharmacia).
Immunoprecipitated and Immunoblotting. PC12 (615) cells were maintained in DMEM containing 10% FBS supplemented with 100 units/ml penicillin, 100 μg/ml streptomycin, and 2 mM glutamine plus 200 μg/ml G418. Cells were placed in serum free medium overnight before experiments. Cell lysates from PC12(615) cells, or basal forebrain cells were incubated in lysis buffer (1% Nonidet P-40) for 4 hrs to overnight at 4° C. with anti-pan-Trk polyclonal antibody followed by incubation with protein A-Sepharose beads. Equivalent amounts of protein were analyzed for each condition.

Specific Binding of 125I-NGF (TrkA; Pc12, 1 mM) | Structure (SMILES) | Phosphorylated MAP kinase (MAP kinase) | Displacement of 125I-NGF binding (TrkA) | Concentration range of the effect upon TrkA receptor activity (TrkA receptors; 2 hours) | Time required for increase in TrkA activation (TrkA receptors; adenosine 10 μM) | Activation of TrkA receptors (tyrosine phosphorylation) (TrkA receptors; ligand for 2 hours, adenosine 10 μM) | Specific Binding of 125I-NGF (TrkA; Pc12, 1 μM) | Activation of TrkA receptor activity (TrkA receptors; 1 nM, 2 hours)
14403 +/− 888 | Nc1ncnc2c1ncn2[C@@H]1O[C@H](CO)[C@@H](O)[C@H]1O [adenosine] | marked increased in phosphorylated MAP kinase | no displacement | low nanomolar range; also recorded: low concentration range | at least 90 minutes | Activated TrkA receptors were observed |  | 
 | CCNC(=O)[C@H]1O[C@@H](n2cnc3c(N)nc(NCCc4ccc(CCC(=O)O)cc4)nc32)[C@H](O)[C@@H]1O [CGS 21680, 2-[(4-(2-carboxyethyl)phenylethyl)]aminoadenosine-5′-N-ethylcarboxamide] |  | no displacement |  |  |  | 14237 +/− 1055 | verified
